Assay [1] concerns the target T1, glucosylceramide synthase (GCS) (Homo sapiens, UniProt Q16739).
T1 sequence (Q16739 1-394): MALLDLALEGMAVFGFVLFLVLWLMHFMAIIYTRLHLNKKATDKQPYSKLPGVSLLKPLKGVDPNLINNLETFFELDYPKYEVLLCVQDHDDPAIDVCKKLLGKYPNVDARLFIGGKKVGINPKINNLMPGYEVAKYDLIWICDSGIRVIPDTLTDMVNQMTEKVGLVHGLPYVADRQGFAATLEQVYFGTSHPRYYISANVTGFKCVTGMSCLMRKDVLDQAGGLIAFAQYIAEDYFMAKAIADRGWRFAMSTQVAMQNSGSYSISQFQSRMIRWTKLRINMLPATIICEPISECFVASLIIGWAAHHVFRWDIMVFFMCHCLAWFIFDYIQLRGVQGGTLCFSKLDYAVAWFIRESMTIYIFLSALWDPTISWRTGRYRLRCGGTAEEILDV
Kind of assay: glucosylceramide synthase (GCS) IC50 determination. It is filed as biochemical. The note with it: for IC50: enzyme preparations exposed to dilutions of inhibitor.

Assay [2] has as its system delF508-CFTR in ileal mucosa. Nature of the assay: intestine explants from ileal mucosa of delF508 mice (short-circuit current, Western blot, immunohistochemistry). The conditions noted are these: 10 nM. As for the experimental part: To test the therapeutic potential of GBA2 inhibitors for CF further the effects of AMP-DNM on intestine explants from ileal mucosa of delF508 mice were analysed. The following assay was used:
Rotterdam delF508/delF508-CFTR mice (Cfr^tm1 Eur), their littermate controls (FVB inbred, 14-17 weeks old, weight between 20 and 30 g, kept on solid food in a pathogen-free environment) and Cftr-KO mice (Cftr^tm2 Cam) were used. Muscle-stripped ileal mucosa was incubated in William's E-Glutamax medium supplemented with insulin (10 μg/ml) and dexamethasone (20 μg/ml). At different time points, the compound was removed by repeated washings followed by short-circuit current (Isc) measurements in mini-Ussing chambers. Western blotting was as performed and immunoblots were probed with monoclonal mouse anti-CFTR antibody (10 μg/ml, IgG1 M3A7, Chemicon, USA). The protein levels were expressed as densitometry and percentage of controls. For immunohistochemistry, tissues were fixed in 4% (wt/vol) paraformaldehyde. Sections (5 μm) were stained with the antibody R3195 (1:500).

Assay [3] deals with delF508-CFTR containing epithelial CF cells (CF15). Kind of assay: cAMP-activated chloride current, perforated whole-cell patch-clamp / iodide efflux in CF15 cells. It is filed as cell-based, human. The note with it: 10 nM; del F508-CFTR containing epithelial CF cells. An excerpt:
The effects of AMP-DNM on cAMP-activated chloride current in delF508-CFTR containing epithelial CF cells were studied with the following assay:
Perforated whole-cell patch-clamp analysis was applied to CF15 cells (human nasal epithelial cell line obtained from delF508 homozygous patient). Patch electrodes (GC150-TF10, Harvard Apparatus, USA) filled with intracellular solution (resistances of 3-4 MΩ) were connected to the RK-400 amplifier (Biologic, France) through an Ag/AgCl pellet. External solution (mM): 145 NaCl, 4 CsCl, 1 MgCl2, 1 CaCl2, 5 d-glucose, 10 TES (pH 7.4, 315 mOsm). Intra-pipette solution (mM): 113 l-aspartic acid, 113 CsOH, 27 CsCl, 1 NaCl, 1 EGTA, 1 MgCl2, 3 Mg-ATP (ex-temporane), 10 TES (pH 7.2 with CsOH, 285 mOsm) and amphotericin B (100 μg/ml) renewed every 2 h. Only cells with input resistance […] were analysed. The mean access resistance and whole cell capacitance were 12±0.6 MΩ and 35±4.3 pF (n=44). Currents were obtained in response to voltage steps from −80 to +80 mV in 20 mV increment. Data were collected using pClamp 6.0.3 package software (Axon Instruments, USA). CFTR Cl^− channel activity was assayed on a cell population by the iodide (^125I) efflux technique.

Assay [4] deals with T2, GBA2 (non-lysosomal glucosylceramidase) (Homo sapiens, UniProt Q9HCG7).
T2 construct: host or cells: GBA2 containing membranes
T2 sequence (Q9HCG7 1-927): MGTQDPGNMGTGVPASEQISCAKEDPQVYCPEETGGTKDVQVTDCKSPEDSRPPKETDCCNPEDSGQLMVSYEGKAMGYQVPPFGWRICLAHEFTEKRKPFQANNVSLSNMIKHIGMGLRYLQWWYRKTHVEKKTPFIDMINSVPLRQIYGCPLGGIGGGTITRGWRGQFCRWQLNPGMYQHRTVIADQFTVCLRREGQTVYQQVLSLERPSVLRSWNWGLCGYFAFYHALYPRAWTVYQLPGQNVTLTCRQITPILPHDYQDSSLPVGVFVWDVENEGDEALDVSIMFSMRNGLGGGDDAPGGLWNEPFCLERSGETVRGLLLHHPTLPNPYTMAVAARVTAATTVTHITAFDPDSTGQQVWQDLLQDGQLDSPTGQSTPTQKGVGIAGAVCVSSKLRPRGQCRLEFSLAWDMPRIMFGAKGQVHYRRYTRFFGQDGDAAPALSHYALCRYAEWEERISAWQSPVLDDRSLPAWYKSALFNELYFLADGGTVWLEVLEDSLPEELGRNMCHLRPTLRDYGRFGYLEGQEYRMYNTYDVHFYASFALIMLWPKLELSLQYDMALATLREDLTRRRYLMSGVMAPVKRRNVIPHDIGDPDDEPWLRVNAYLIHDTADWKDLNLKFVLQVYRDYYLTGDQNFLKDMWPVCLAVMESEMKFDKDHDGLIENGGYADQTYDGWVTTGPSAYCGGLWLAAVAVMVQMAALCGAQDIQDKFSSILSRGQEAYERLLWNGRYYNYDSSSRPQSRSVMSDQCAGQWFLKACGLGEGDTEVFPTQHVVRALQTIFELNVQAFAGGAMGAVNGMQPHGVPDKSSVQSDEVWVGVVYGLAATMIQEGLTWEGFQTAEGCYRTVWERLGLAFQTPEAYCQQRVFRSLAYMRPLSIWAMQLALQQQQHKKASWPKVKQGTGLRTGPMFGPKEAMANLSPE
Nature of the assay: non-lysosomal glucosylceramidase (GBA2) IC50 determination. The conditions noted are these: enzyme preparations exposed to dilutions of inhibitor. It is filed as biochemical.

Molecules are shown by their SMILES.

As to `CC(C)(C)COCCCCCN1C[C@H](O)[C@@H](O)[C@H](O)[C@H]1CO` [N-[5′-neopentyloxy-pentan]-1-deoxynojirimycin], in assay [1], the “inhibition of GCS (in words)” value is “hardly inhibits GCS” and the IC50 is > 100 µM.

On to `OC[C@@H]1[C@@H](O)[C@H](O)[C@@H](O)CN1CCCCCOCC12CC3CC(CC(C3)C1)C2` [AMP-DNM, N-[5′-(adamantan-1′-yl-methoxy)-pentan]-1-deoxynojirimycin], for which the “rescue of delF508-CFTR in intestinal crypts of ileal mucosa” value in assay [2] is “rescues a mature and functional delF508-CFTR”. For the same compound, the “restoration of cAMP-activated chloride current, % of normal levels” value in assay [3] was “up to 30%”.

`OC[C@@H]1[C@@H](O)[C@H](O)[C@@H](O)CN1CCCCOCC12CC3CC(CC(C3)C1)C2` [N-[5′-(adamantan-1′-yl-methoxy)-butan]-1-deoxynojirimycin]: the IC50 was found to be 10 µM in assay [1] and 0.002 µM in assay [4].

With `OC[C@@H]1[C@@H](O)[C@H](O)[C@@H](O)CN1CCCCCCC12CC3CC(CC(C3)C1)C2` [N-[6′-adamantyl-hexan]-1-deoxynojirimycin], the half-maximal inhibitory concentration (IC50) in assay [1] was 7.5 µM; in assay [4] it was 0.001 µM.

The record behind these values is patent publication US8410081B2, “Treatment of cystic fibrosis” (Academisch Medisch Centrum, priority 2006, dated 2013).
